The EC50 is the midpoint of the concentration-response curve.

The assay concerns human immortalized podocytes inducibly expressing APOL1 G2. In words: APOL1 G2 podocyte cell rescue assay (Example B4). It is filed as cell-based. Particulars: Homo sapiens, differentiated human podocytes, doxycycline-induced APOL1 G2, CellTiter-Glo; geometric mean of at least 2 runs; † = single run. The method in brief: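 Differentiated hTERT-immortalized podocytes (clone D10) with doxycycline-inducible C-terminally HiBiT-tagged APOL1 G2, 6,000 cells/well, treated with doxycycline plus 8-point 3-fold compound series (0.4% DMSO) for 95 h at 37 °C. Viability by CellTiter-Glo luminescence; EC50 as geometric mean of ≥2 runs, each in duplicate.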
For orientation: ATP-based viability assays read luminescence as a measure of living cells.

Consider `CC(C)[C@]1(O)C[C@@H](N2C(=O)CCc3cc(OCCN4CCC5(CC4)C(=O)Nc4ccc(Cl)cc45)cnc32)C1` [Compound 317, 5-chloro-1′-[2-({7-oxo-8-[(cis)-3-hydroxy-3-(propan-2-yl)cyclobutyl]-5,6,7,8-tetrahydro-1,8-naphthyridin-3-yl}oxy)ethyl]-1,2-dihydrospiro[indole-3,4′-piperidin]-2-one], for which the 50% effective concentration (EC50) came out at 2.92 nM.

The values are drawn from US12344610B2, “APOL1 inhibitors and methods of use” (Maze Therapeutics, Inc., priority 2022, dated 2025).
